One assay addresses T1, rhuman cathepsin K (Homo sapiens, UniProt P43235).
T1 sequence (P43235 115-329): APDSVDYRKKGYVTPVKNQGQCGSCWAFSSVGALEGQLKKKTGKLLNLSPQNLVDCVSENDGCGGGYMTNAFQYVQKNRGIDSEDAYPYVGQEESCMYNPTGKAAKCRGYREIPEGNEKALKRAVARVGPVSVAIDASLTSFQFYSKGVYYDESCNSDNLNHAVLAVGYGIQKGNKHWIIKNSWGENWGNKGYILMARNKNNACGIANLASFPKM
The assay is described as follows: Assay for identification of Cathepsin K inhibitors (QFRET, cleavage of Z-Phe-Arg-AMC). Type of assay: biochemical. The note with it: 0.5 nM rhuman cathepsin K, Z-Phe-Arg-AMC substrate, 30 min pre-incubation, 1 h incubation at room temperature; mean of two separate occasions. On the procedure:
0.5 nM [final] rhuman cathepsin K in phosphate buffer was added to a 384-well black microtitre plate containing investigative compounds. The enzyme and compound were pre-incubated at room temperature for 30 minutes before the addition of […] [final] Z-Phe-Arg-AMC synthetic substrate in phosphate buffer. The plates were covered and incubated for 1 h at room temperature, protected from light. Following the incubation the reaction was stopped with 7.5% [final]acetic acid. Relative fluorescence was measured using the Ultra plate reader at a wavelength of 360 nm excitation and 425 nm emission.
Data was corrected for background fluorescence (minimum controls without enzyme).
Consider “(1R,2R)-N-(1-cyanocyclopropyl)-2-[(6-methyl-1,3,4,5-tetrahydro-2H-pyrido[4,3-b]indol-2-yl)carbonyl]cyclohexanecarboxamide [Example 6]”, for which the “CatK FRET Mean pIC50” value was 8.553.

The same assay, now with this note: 0.5 nM rhuman cathepsin K, Z-Phe-Arg-AMC substrate, 30 min pre-incubation, 1 h incubation at room temperature; mean of two separate occasions; read-out: CatK FRET Mean pIC50 (converted).
For the compound `Cn1c2c(c3cccnc31)CN(C(=O)[C@@H]1CCCC[C@H]1C(=O)NC1(C#N)CC1)CC2` [Example 21, (1R,2R)-N-(1-cyanocyclopropyl)-2-[(9-methyl-5,7,8,9-tetrahydro-6H-pyrrolo[2,3-b:4,5-c′]dipyridin-6-yl)carbonyl]cyclohexanecarboxamide], the IC50 is 1.46 nM. The same measure, in the same setting: the figure for `N#CC1(NC(=O)[C@@H]2CCCC[C@H]2C(=O)N2CCc3oc4ccccc4c3C2)CC1` [Example 23, (1R,2R)-N-(1-cyanocyclopropyl)-2-[(benzofuro[3,2-c]-1,2,3,4-tetrahydropyridyl)carbonyl]cyclohexanecarboxamide] is 2.24 nM; for `N#CC1(NC(=O)[C@@H]2CCCC[C@H]2C(=O)N2CCc3[nH]c4c(C(F)(F)F)cccc4c3C2)CC1` [Example 30, (1R,2R)-N-(1-cyanocyclopropyl)-2-{[6-(trifluoromethyl)-1,3,4,5-tetrahydro-2H-pyrido[4,3-b]indol-2-yl]carbonyl}cyclohexanecarboxamide] it is 5.5 nM; for `N#CC1(NC(=O)[C@@H]2CCCC[C@H]2C(=O)N2CCc3[nH]c4c(Br)cccc4c3C2)CC1` [Example 13, (1R,2R)-2-[(6-bromo-1,3,4,5-tetrahydro-2H-pyrido[4,3-b]indol-2-yl)carbonyl]-N-(1-cyanocyclopropyl)cyclohexanecarboxamide] it is 2.24 nM. With `N#CC1(NC(=O)[C@@H]2CCCC[C@H]2C(=O)N2CCc3[nH]c4c(F)cccc4c3C2)CC1` [Example 3, (1R,2R)-N-(1-cyanocyclopropyl)-2-[(6-fluoro-1,3,4,5-tetrahydro-2H-pyrido[4,3-b]indol-2-yl)carbonyl]cyclohexanecarboxamide], the IC50 is 0.767 nM. Regarding `N#CC1(NC(=O)[C@@H]2CCCC[C@H]2C(=O)N2CCc3[nH]c4c(Cl)cccc4c3C2)CC1` [Example 19, (1R,2R)-2-[(6-chloro-1,3,4,5-tetrahydro-2H-pyrido[4,3-b]indol-2-yl)carbonyl]-N-(1-cyanocyclopropyl)cyclohexanecarboxamide], the IC50 is 1.78 nM. Regarding `CS(=O)(=O)c1cccc2c3c([nH]c12)CCN(C(=O)[C@@H]1CCCC[C@H]1C(=O)NC1(C#N)CC1)C3` [Example 31, (1R,2R)-N-(1-cyanocyclopropyl)-2-{[6-(methylsulfonyl)-1,3,4,5-tetrahydro-2H-pyrido[4,3-b]indol-2-yl]carbonyl}cyclohexanecarboxamide], the IC50 was 17.4 nM. Still for that read-out and setting: the figure for `COCCn1c2c(c3ccccc31)CN(C(=O)[C@@H]1CCCC[C@H]1C(=O)NC1(C#N)CC1)CC2` [Example 29, (1R,2R)-N-(1-cyanocyclopropyl)-2-[(5-methoxyethyl-1,3,4,5-tetrahydro-2H-pyrido[4,3-b]indol-2-yl)carbonyl]cyclohexanecarboxamide] is 3.89 nM. Turning to `N#CC1(NC(=O)[C@@H]2CCCC[C@H]2C(=O)N2CCc3c(c4ccccc4n3CC3CC3)C2)CC1` [Example 28, (1R,2R)-N-(1-cyanocyclopropyl)-2-[(5-cyclopropylmethyl-1,3,4,5-tetrahydro-2H-pyrido[4,3-b]indol-2-yl)carbonyl]cyclohexanecarboxamide], the IC50 is 3.45 nM.

`COc1ccc2[nH]c3c(c2c1)CN(C(=O)[C@@H]1CCCC[C@H]1C(=O)NC1(C#N)CC1)CC3` [Example 8, (1R,2R)-N-(1-cyanocyclopropyl)-2-[(8-methoxy-1,3,4,5-tetrahydro-2H-pyrido[4,3-b]indol-2-yl)carbonyl]cyclohexanecarboxamide]: the IC50 is 40.7 nM. Regarding `N#CC1(NC(=O)[C@@H]2CCCC[C@H]2C(=O)N2Cc3ccccc3C3(CCNCC3)C2)CC1` [Example 18, (1R,2R)-N-(1-cyanocyclopropyl)-2-(1H-spiro[isoquinoline-4,4′-piperidin]-2(3H)-ylcarbonyl)cyclohexanecarboxamide], the IC50 is 7.1 nM.

With `N#CC1(NC(=O)[C@@H]2CCCC[C@H]2C(=O)N2CCc3[nH]c4ccc(C(F)(F)F)cc4c3C2)CC1` [Example 7, (1R,2R)-N-(1-cyanocyclopropyl)-2-{[8-(trifluoromethyl)-1,3,4,5-tetrahydro-2H-pyrido[4,3-b]indol-2-yl]carbonyl}cyclohexanecarboxamide], the IC50 is 42.1 nM.

Regarding `N#CCOc1cccc2c3c([nH]c12)CCN(C(=O)[C@@H]1CCCC[C@H]1C(=O)NC1(C#N)CC1)C3` [Example 35, (1R,2R)-N-(1-cyanocyclopropyl)-2-{[6-(cyanomethoxy)-1,3,4,5-tetrahydro-2H-pyrido[4,3-b]indol-2-yl]carbonyl}cyclohexanecarboxamide], the IC50 was 0.558 nM.

Turning to `N#CC1(NC(=O)[C@@H]2CCCC[C@H]2C(=O)N2CCc3oc4ncccc4c3C2)CC1` [Example 41, (1R,2R)-2-(7,8-Dihydro-5H-furo[2,3-b:4,5-c′]dipyridine-6-carbonyl)-cyclohexanecarboxylic acid (1-cyano-cyclopropyl)-amide], the IC50 is 6.44 nM. For the compound `N#CC1(NC(=O)[C@@H]2CCCC[C@H]2C(=O)N2CCc3[nH]c4cccc(F)c4c3C2)CC1` [Example 9, (1R,2R)-N-(1-cyanocyclopropyl)-2-[(9-fluoro-1,3,4,5-tetrahydro-2H-pyrido[4,3-b]indol-2-yl)carbonyl]cyclohexanecarboxamide], the IC50 was 49.9 nM.

`N#CC1(NC(=O)[C@@H]2CCCC[C@H]2C(=O)N2CCc3[nH]c4ccc(Br)cc4c3C2)CC1` [Example 5, (1R,2R)-2-[(8-bromo-1,3,4,5-tetrahydro-2H-pyrido[4,3-b]indol-2-yl)carbonyl]-N-(1-cyanocyclopropyl)cyclohexanecarboxamide]: the IC50 is 6.38 nM. For `N#CC1(NC(=O)[C@@H]2CCCC[C@H]2C(=O)N2CCc3[nH]c4ccccc4c3C2)CC1` [Example 4, (1R,2R)-N-(1-cyanocyclopropyl)-2-(1,3,4,5-tetrahydro-2H-pyrido[4,3-b]indol-2-ylcarbonyl)cyclohexanecarboxamide], the IC50 was 1.3 nM. Take `N#CC1(NC(=O)[C@@H]2CCCC[C@H]2C(=O)N2CCc3[nH]c4cc(F)ccc4c3C2)CC1` [Example 10, (1R,2R)-N-(1-cyanocyclopropyl)-2-[(7-fluoro-1,3,4,5-tetrahydro-2H-pyrido[4,3-b]indol-2-yl)carbonyl]cyclohexanecarboxamide]: the IC50 is 10.2 nM. On to `N#CC1(NC(=O)[C@@H]2CCCC[C@H]2C(=O)N2CCc3[nH]c4c(O)cccc4c3C2)CC1` [Example 33, (1R,2R)-N-(1-cyanocyclopropyl)-2-[(6-hydroxy-1,3,4,5-tetrahydro-2H-pyrido[4,3-b]indol-2-yl)carbonyl]cyclohexanecarboxamide], for which the IC50 is 1.03 nM. Take `CCOc1cccc2c3c([nH]c12)CCN(C(=O)[C@@H]1CCCC[C@H]1C(=O)NC1(C#N)CC1)C3` [Example 25, (1R,2R)-N-(1-cyanocyclopropyl)-2-[(6-ethoxy-1,3,4,5-tetrahydro-2H-pyrido[4,3-b]indol-2-yl)carbonyl]cyclohexanecarboxamide]: the IC50 is 0.899 nM. Turning to `N#CC1(NC(=O)[C@@H]2CCCC[C@H]2C(=O)N2CCc3[nH]c4c(OC(F)(F)F)cccc4c3C2)CC1` [Example 24, (1R,2R)-N-(1-cyanocyclopropyl)-2-{[6-(trifluoromethoxy)-1,3,4,5-tetrahydro-2H-pyrido[4,3-b]indol-2-yl]carbonyl}cyclohexanecarboxamide], the IC50 is 1.88 nM. As for `N#CC1(NC(=O)[C@@H]2CCCC[C@H]2C(=O)N2CCc3[nH]c4c5c(ccc4c3C2)OC(F)(F)O5)CC1` [Example 44, (1R,2R)-N-(1-cyanocyclopropyl)-2-(2,2-difluoro-7,8,9,10-tetrahydro-6H-[1,3]dioxolo[4,5-g]pyrido[4,3-b]indole-7-carbonyl)cyclohexanecarboxamide], the IC50 is 2.13 nM.

In the case of `COC(=O)Cn1c2c(c3ccccc31)CN(C(=O)[C@@H]1CCCC[C@H]1C(=O)NC1(C#N)CC1)CC2` [Example 26, (1R,2R)-N-(1-cyanocyclopropyl)-2-[(5-methoxycarbonylmethyl-1,3,4,5-tetrahydro-2H-pyrido[4,3-b]indol-2-yl)carbonyl]cyclohexanecarboxamide], the IC50 was 2.85 nM. Same read-out and setting: to `CCCOc1cccc2c3c([nH]c12)CCN(C(=O)[C@@H]1CCCC[C@H]1C(=O)NC1(C#N)CC1)C3` [Example 34, (1R,2R)-N-(1-cyanocyclopropyl)-2-[(6-propoxy-1,3,4,5-tetrahydro-2H-pyrido[4,3-b]indol-2-yl)carbonyl]cyclohexanecarboxamide] belongs 0.486 nM. For the compound `CS(=O)(=O)c1ccc2[nH]c3c(c2c1)CN(C(=O)[C@@H]1CCCC[C@H]1C(=O)NC1(C#N)CC1)CC3` [Example 16, (1R,2R)-N-(1-cyanocyclopropyl)-2-{[8-(methylsulfonyl)-1,3,4,5-tetrahydro-2H-pyrido[4,3-b]indol-2-yl]carbonyl}cyclohexanecarboxamide], the IC50 was 78.5 nM. Regarding `Cn1c2c(c3cc(F)ccc31)CN(C(=O)[C@@H]1CCCC[C@H]1C(=O)NC1(C#N)CC1)CC2` [Example 12, (1R,2R)-N-(1-cyanocyclopropyl)-2-[(8-fluoro-5-methyl-1,3,4,5-tetrahydro-2H-pyrido[4,3-b]indol-2-yl)carbonyl]cyclohexanecarboxamide], the IC50 was 2.84 nM.

The values above are taken from patent publication US8008279B2, “Compound—827” (AstraZeneca AB, priority 2007, dated 2011).
